Experimental data: US20070142363A1, “Novel diazabicyclonene derivatives and use thereof” (ACTELION PHARMACEUTICALS LTD, priority 2003, published 2007)

target: T1, human recombinant renin (Homo sapiens, UniProt P00797); assay: Inhibition of human recombinant renin (enzymatic in vitro assay, Ang I detected by EIA); format: biochemical; conditions: human recombinant renin 0.16 ng/mL, synthetic human angiotensin(1-14) 0.5 μM, 37° C. for 3 h
T1 sequence (P00797 67-406): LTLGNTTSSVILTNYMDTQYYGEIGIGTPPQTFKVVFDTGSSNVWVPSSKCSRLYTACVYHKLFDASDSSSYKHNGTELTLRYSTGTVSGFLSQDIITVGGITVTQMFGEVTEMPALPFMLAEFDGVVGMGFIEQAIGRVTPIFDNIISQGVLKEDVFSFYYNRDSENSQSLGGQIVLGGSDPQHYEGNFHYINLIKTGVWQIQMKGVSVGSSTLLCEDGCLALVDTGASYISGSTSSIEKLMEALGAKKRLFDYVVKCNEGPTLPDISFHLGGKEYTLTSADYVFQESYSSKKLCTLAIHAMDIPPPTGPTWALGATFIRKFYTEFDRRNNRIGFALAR
Procedure: Inhibition of Human Recombinant Renin by the Compounds of the Invention The enzymatic in vitro assay was performed in 384-well polypropylene plates (Nunc). The assay buffer consisted of 10 mM PBS (Gibco BRL) including 1 mM EDTA and 0.1% BSA. The incubates were composed of 50 μL per well of an enzyme mix and 2.5 μL of renin inhibitors in DMSO. The enzyme mix was premixed at 4° C. and consists of the following components: • human recombinant renin (0.16 ng/mL) * synthetic human angiotensin(1-14) (0.5 μM) • hydroxyquinoline sulfate (1 mM) The mixtures were then incubated at 37° C. for 3 h. To determine the enzymatic activity and its inhibition, the accumulated Ang I was detected by an enzyme immunoassay (EIA) in 384-well plates (Nunc). 5 μL of the incubates or standards were transferred to immuno plates which were previously coated with a covalent complex of Ang I and bovine serum albumin (Ang I—BSA). 75 μL of Ang I-antibodies in essaybuffer above including 0.01% Tween 20 were added and a primary incubation made at 4° C. overnight. The plates were washed 3 times with PBS including 0.01% Tween 20, and then incubated for 2 h at rt with an antirabbit-peroxidase coupled antibody (WA 934, Amersham).

`Cc1c(CN(C(=O)C2=C(c3ccc(CCCOc4c(F)ccc(F)c4Cl)cc3)C[C@@H]3CNC[C@H]2N3)C2CC2)ccnc1OCCO` (racemic) [Example 3, (rac.)-(1R*, 5S*)-7-{4-[3-(2-Chloro-3,6-difluorophenoxy)propyl]phenyl}-3,9-diazabicyclo[3.3.1]non-6-ene-6-carboxylic Acid Cyclopropyl-[2-(2-hydroxy-ethoxy)-3-methylpyridin-4-ylmethyl]amide] and `Cc1c(CN(C(=O)C2=C(c3ccc(CCCOc4c(F)ccc(F)c4Cl)cc3)C[C@@H]3CNC[C@H]2N3)C2CC2)ccnc1OCCCO` (racemic) [Example 1, (rac.)-(1R*, 5S*)-7-{4-[3-(2-Chloro-3,6-difluorophenoxy)propyl]phenyl}-3,9-diazabicyclo[3.3.1]non-6-ene-6-carboxylic Acid Cyclopropyl-[2-(3-hydroxy-propoxy)-3-methylpyridin-4-ylmethyl]amide] are within 1.5-fold of each other in IC50: 0.82 nM for the first, 1.16 nM for the second.

First: Cc1cc(Cl)c(OCCOc2ccc(C3=C(C(=O)N(Cc4ccnc(OCCO)c4C)C4CC4)[C@H]4CNC[C@@H](C3)N4)cc2)c(Cl)c1 (racemic) [Example 4, (rac.)-(1R*, 5S*)-7-{4-[2-(2,6-Dichloro-4-methylphenoxy)ethoxy]phenyl}-3,9-diazabicyclo[3.3.1]non-6-ene-6-carboxylic Acid Cyclopropyl-[2-(2-hydroxy-ethoxy)-3-methylpyridin-4-ylmethyl]amide]
Second: Cc1cc(Cl)c(OCCOc2ccc(C3=C(C(=O)N(Cc4ccnc(OCCCO)c4C)C4CC4)[C@H]4CNC[C@@H](C3)N4)cc2)c(Cl)c1 (racemic) [Example 2, (rac.)-(1R*, 5S*)-7-{4-[2-(2,6-Dichloro-4-methylphenoxy)ethoxy]phenyl}-3,9-diazabicyclo[3.3.1]non-6-ene-6-carboxylic Acid Cyclopropyl-[2-(3-hydroxy-propoxy)-3-methylpyridin-4-ylmethyl]amide]
The IC50 of the first is 2.9-fold higher: 1.43 nM for the first, 0.49 nM for the second. The second is the more potent here.
